Laboratory results as given in patent publication US6737383B1, “Herbicidal oxadiazolidines” (priority 1999, dated 2004).

Legend:
bamyardgrass = assay: Test B flood test barnyardgrass; type: in vivo, Echinochloa crus-galli; settings: for Plant response rating, Barnyardgrass (0 to 10 scale, 0 is no effect, 10 is complete control) / Barnyardgrass plant response rating (0 to 10 scale, 0 is no effect, 10 is complete control): visual evaluation after twelve to sixteen days; for Barnyardgrass plant response rating (0 to 10 scale, 0 is no effect, 10 is complete control): under heading Pre-emergence
In short: (§1)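 Read-out is a visual response score from 0 (no effect) to 10 (complete control), assigned by comparison with untreated controls. Treatment was applied at the 2-leaf stage, and plants stayed in the greenhouse for twelve to sixteen days before scoring.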

sugar beet = assay: Test B pre/postemergence sugar beet; type: in vivo, Beta vulgaris
In short: (§2)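 Test chemicals in a non-phytotoxic solvent mixture with surfactant were sprayed preemergence onto planted seeds and postemergence onto plants 2 to 18 cm tall (1- to 4-leaf stage). After twelve to sixteen days in a greenhouse, injury was visually rated against untreated controls from 0 (no effect) to 10 (complete control).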

cocklebur = assay: Test B pre/postemergence cocklebur; type: in vivo, Xanthium strumarium
In short: as §2

smallflower flatsedge = assay: Test B flood test smallflower flatsedge; type: in vivo, Cyperus difformis; settings: for Plant response rating, S. Flatsedge (0 to 10 scale, 0 is no effect, 10 is complete control) / S. Flatsedge plant response rating (0 to 10 scale, 0 is no effect, 10 is complete control): visual evaluation after twelve to sixteen days; for S. Flatsedge plant response rating (0 to 10 scale, 0 is no effect, 10 is complete control): under heading Pre-emergence
In short: as §1

[1] = Rate 62 g/ha, flood test species, Pre-emergence
[2] = Rate 125 g/ha, flood test species
[3] = Rate 250 g/ha, Pre-emergence (flood test species), scale 0 to 10, 0 is no effect, 10 is complete control
[4] = Rate 500 g/ha, Pre-emergence section of Table B, 0 to 10 scale (0 no effect, 10 complete control)
[5] = Postemergence, Rate 62 g/ha, scale of 0 to 10, 0 is no effect, 10 is complete control
[6] = Postemergence, Rate 500 g/ha, scale 0 to 10, 0 is no effect, 10 is complete control
[7] = Preemergence, Rate 62 g/ha, scale 0 to 10 (0 no effect, 10 complete control)
[8] = Preemergence, Rate 125 g/ha, scale 0 to 10, 0 is no effect, 10 is complete control
[9] = Preemergence, Rate 500 g/ha, scale of 0 to 10 where 0 is no effect and 10 is complete control
[10] = Rate 250 g/ha, Postemergence, scale of 0 to 10 where 0 is no effect and 10 is complete control
[11] = Rate 500 g/ha, Pre-emergence, flood test species, scale 0 to 10 (0 no effect, 10 complete control)
[12] = Postemergence, Rate 250 g/ha, scale 0 to 10
[13] = Preemergence, Rate 62 g/ha, scale of 0 to 10 where 0 is no effect and 10 is complete control
[14] = Preemergence, Rate 125 g/ha, scale of 0 to 10 where 0 is no effect and 10 is complete control
[15] = Preemergence, Rate 250 g/ha, scale 0 to 10, 0 is no effect, 10 is complete control
[16] = Preemergence, Rate 500 g/ha, scale 0 to 10, 0 is no effect, 10 is complete control
[17] = Rate 62 g/ha, Postemergence, scale 0 to 10 (0 no effect, 10 complete control)
[18] = Rate 125 g/ha, Postemergence, scale 0 to 10, 0 is no effect, 10 is complete control
[19] = Postemergence, Rate 62 g/ha, scale 0 to 10, 0 is no effect, 10 is complete control
[20] = Rate 125 g/ha, Postemergence section (flood test species), scale 0 to 10, 0 no effect, 10 complete control
[21] = flood test, listed under Postemergence, Rate 250 g/ha, scale 0 to 10, 0 no effect, 10 complete control
[22] = Postemergence, Rate 250 g/ha, scale 0 to 10, 0 no effect, 10 complete control
[23] = Preemergence, Rate 31 g/ha, visual rating, scale 0 to 10 (0 no effect, 10 complete control)
[24] = Preemergence, Rate 62 g/ha, scale 0 to 10, 0 is no effect, 10 is complete control
[25] = Preemergence, Rate 125 g/ha, scale 0 to 10 (0 no effect, 10 complete control)
[26] = Preemergence, Rate 250 g/ha, scale of 0 to 10 where 0 is no effect and 10 is complete control
[27] = Rate 125 g/ha, Postemergence, scale 0 to 10, 0 no effect, 10 complete control

CCC=CCn1c(=O)on(C(=O)N(c2ccc(Cl)cc2)C(C)C)c1=O [Compound 552]
2: Plant response rating, Cocklebur (cocklebur; [10])
3: Plant response rating, Sugarbeets (sugar beet; [10])
0: Plant response rating, Barnyardgrass (0 to 10 scale, 0 is no effect, 10 is complete control) (bamyardgrass; [1]) | Barnyardgrass plant response rating (0 to 10 scale, 0 is no effect, 10 is complete control) (bamyardgrass; [2]) | Barnyardgrass plant response rating (bamyardgrass; [3]) | Barnyardgrass plant response rating (bamyardgrass; [4]) | Sugarbeets plant response rating (sugar beet; [5]) | Sugarbeets plant response rating (sugar beet; [7]) | Sugarbeets plant response rating (sugar beet; [8]) | Sugarbeets plant response rating (0 to 10 scale) (sugar beet; Preemergence, Rate 250 g/ha) | Cocklebur plant response rating (cocklebur; [5]) | Cocklebur plant response rating (cocklebur; Postemergence, Rate 125 g/ha, scale 0 to 10, 0 is no effect, 10 is complete control) | Cocklebur plant response rating (cocklebur; [7]) | Cocklebur plant response rating (cocklebur; [8]) | Cocklebur plant response rating (0 to 10 scale) (cocklebur; Preemergence, Rate 250 g/ha) | Cocklebur plant response rating (cocklebur; [9]) | Plant response rating, S. Flatsedge (0 to 10 scale, 0 is no effect, 10 is complete control) (smallflower flatsedge; [1]) | S. Flatsedge plant response rating (0 to 10 scale, 0 is no effect, 10 is complete control) (smallflower flatsedge; [2]) | S. Flatsedge plant response rating (smallflower flatsedge; [3]) | S. Flatsedge plant response rating (smallflower flatsedge; [4])
4: Plant response rating, Cocklebur (cocklebur; [6])
7: Plant response rating, Sugarbeets (sugar beet; [6])
5: Sugarbeets plant response rating (sugar beet; [9])

CC(C)N(C(=O)n1oc(=O)n(C(C)C(=O)N(C)C)c1=O)c1ccc(F)cc1 (centres unmarked) [Compound 478]
0: Plant response rating, Barnyardgrass (0 to 10 scale, 0 is no effect, 10 is complete control) (bamyardgrass; [1]) | Barnyardgrass plant response rating (0 to 10 scale, 0 is no effect, 10 is complete control) (bamyardgrass; [2]) | Barnyardgrass plant response rating (bamyardgrass; [3]) | Barnyardgrass plant response rating (bamyardgrass; [11]) | Sugarbeets plant response rating (sugar beet; [12]) | Plant response rating, Sugarbeets (sugar beet; [13]) | Plant response rating, Sugarbeets (sugar beet; [14]) | Sugarbeets plant response rating (sugar beet; [17]) | Sugarbeets plant response rating (sugar beet; [18]) | Cocklebur plant response rating (cocklebur; [12]) | Cocklebur plant response rating (cocklebur; Postemergence, Rate 500 g/ha, scale of 0 to 10 where 0 is no effect and 10 is complete control) | Plant response rating, Cocklebur (cocklebur; [13]) | Plant response rating, Cocklebur (cocklebur; [14]) | Cocklebur plant response rating (cocklebur; [15]) | Cocklebur plant response rating (cocklebur; [16]) | Cocklebur plant response rating (cocklebur; [17]) | Cocklebur plant response rating (cocklebur; [18]) | Plant response rating, S. Flatsedge (0 to 10 scale, 0 is no effect, 10 is complete control) (smallflower flatsedge; [1]) | S. Flatsedge plant response rating (0 to 10 scale, 0 is no effect, 10 is complete control) (smallflower flatsedge; [2]) | S. Flatsedge plant response rating (smallflower flatsedge; [3]) | S. Flatsedge plant response rating (smallflower flatsedge; [11])
7: Sugarbeets plant response rating (sugar beet; [16])
3: Sugarbeets plant response rating (sugar beet; [15])

CCN(C(=O)n1oc(=O)n(-c2ccccc2OC)c1=O)C1CCCCC1 [Compound 29]
0: Barnyardgrass plant response rating (bamyardgrass; [19]) | Barnyardgrass plant response rating (bamyardgrass; [20]) | Barnyardgrass plant response rating (bamyardgrass; Rate 500 g/ha, Postemergence section of Table B, 0 to 10 scale (0 no effect, 10 complete control)) | Barnyardgrass plant response rating (bamyardgrass; [21]) | Sugarbeets plant response rating (sugar beet; [19]) | Sugarbeets plant response rating (sugar beet; [22]) | Sugarbeets plant response rating (sugar beet; [23]) | Plant response rating, Sugarbeets (sugar beet; [24]) | Plant response rating, Sugarbeets (sugar beet; [25]) | Plant response rating, Sugarbeets (sugar beet; [26]) | Sugarbeets plant response rating (sugar beet; [27]) | Cocklebur plant response rating (cocklebur; [19]) | Cocklebur plant response rating (cocklebur; [22]) | Cocklebur plant response rating (cocklebur; [23]) | Plant response rating, Cocklebur (cocklebur; [24]) | Plant response rating, Cocklebur (cocklebur; [25]) | Plant response rating, Cocklebur (cocklebur; [26]) | Cocklebur plant response rating (cocklebur; Rate 31 g/ha, Postemergence, scale 0 to 10) | Cocklebur plant response rating (cocklebur; [27]) | S. Flatsedge plant response rating (smallflower flatsedge; [19]) | S. Flatsedge plant response rating (smallflower flatsedge; [20]) | S. Flatsedge plant response rating (smallflower flatsedge; [21])
